Laboratory results from patent publication US9657025B2, “Pyrazolopyrimidine compounds” (University Health Network, priority 2013, dated 2017).
Where a name gives a salt, the structure may show the parent alone.

Tested on: Ovarian TICs (Ovarian 2393A)
Assay: Ovarian tumor-initiating cell growth inhibition, Alamar Blue assay
Assay type: cell-based
Conditions: 144 h, read-out: Tumor Initiating Cell GI50 Range Ovarian 2393A
Description: Materials and Methods: Non-tissue or tissure cultured treated T-75 flask and 96-well plates were purchased from VWR. Vitamin B-27 supplement, MEM NEAA (minimum essential medium non-essential amino acids), sodium pyruvate, L-glutamine, N2 supplement, penicillin-streptomycin and fungizone/amphotericin B were obtained from Invitrogen. Lipid mixture, heparin and EGF were purchased from Sigma; bFGF from BD Biosciences. Tumor Initiating Cells (TICs) from colon were routinely maintained using non-tissue cultured treated T-75 flasks in DMEM:F12 medium containing 0.2×B-27 supplement, 4 ug/ml heparin, 1×MEM NEAA, 1×sodium pyruvate, 1 mM glutamine, 10 pg/ul bFGF, 20 pg/ul EGF, 1× N2 supplement, lipid mixture, penicillin-streptomycin and fungizone/amphotericin B. Ovarian TICs were routinely maintained using tissue cultured treated T-75 flasks in DMEM:F12 medium containing 1×B-27 supplement, 4 ug/ml heparin, 20 pg/ul bFGF, 20 pg/ul EGF and penicillin-streptomycin. Assay Protocol: Compounds described herein were dissolved in DMSO and further diluted in cell culture medium for GI50 determination. […] Cell viability was assessed by Alamar Blue assay: 10 ul of Alamar Blue was added into each well. After 4 hours incubation at 37° C., fluorescence was recorded at excitation 544 and emission 590. GI50 (Growth inhibition) was calculated using GraphPad Prism 4.0 software. […]

Structure (SMILES): Cc1cc(-c2cnn3c(NC[C@H]4C[C@@](C)(O)C4)cc(Oc4cccnc4)nc23)ccc1C(=O)NC1CC1 [Example A4, N-cyclopropyl-4-(7-((((1s,3s)-3-hydroxy-3-methylcyclobutyl)methyl)amino-5-(pyridin-3-yloxy)pyrazolo[1,5-a]pyrimidin-3-yl)-2-methylbenzamide hydrochloride and itsfreebase]
- GI50: < 100 nM
